Reference: ChEMBL document CHEMBL1687756 (Antimicrob Agents Chemother, 2010)

Columns and labels:
[1] = Drug level in Beagle dog lymph node popliteal at 5 mg/kg, sc after 3 months; type: ADME, organism-based, Canis lupus familiaris; parameters: dose 5 mg/kg, route subcutaneous; details: read-out: Drug uptake
[2] = Drug level in male Beagle dog spleen at 200 mg/kg, sc after 3 months; type: ADME, organism-based, Canis lupus familiaris; parameters: dose 200 mg/kg, route subcutaneous; details: read-out: Drug uptake
[3] = Plasma concentration in Beagle dog at 5 mg/kg administered intramuscularly after 1 month; type: ADME, organism-based, Canis lupus familiaris; parameters: dose 5 mg/kg, route intramuscular; details: im
[4] = Ratio of drug level in thymus to plasma in female Beagle dog at 200 mg/kg, sc after 3 months; type: ADME, organism-based, Canis lupus familiaris; parameters: dose 200 mg/kg, route subcutaneous
[5] = Cmax in female dog at 400 mg administered intramuscularly after 29 days; details: in vivo, im
[6] = Ratio of drug level in lymph node popliteal to plasma in Beagle dog at 5 mg/kg, sc after 6 months; type: ADME, organism-based, Canis lupus familiaris; parameters: dose 5 mg/kg, route subcutaneous
[7] = Drug level in Beagle dog lymph node mandibular at 5 mg/kg administered intramuscularly after 6 months; type: ADME, organism-based, Canis lupus familiaris; parameters: dose 5 mg/kg, route intramuscular; details: im, read-out: Drug uptake
[8] = Drug level in Beagle dog lymph node iliac at 5 mg/kg administered intramuscularly after 6 months; type: ADME, organism-based, Canis lupus familiaris; parameters: dose 5 mg/kg, route intramuscular; details: im, read-out: Drug uptake
[9] = Drug level in Beagle dog muscle at injected site at 5 mg/kg administered intramuscularly after 3 months; type: ADME, organism-based, Canis lupus familiaris, Muscle tissue; parameters: dose 5 mg/kg, route intramuscular; details: im, read-out: Drug uptake
[10] = AUC (0 to last) in Beagle dog at 5 mg/kg administered intramuscularly after 184 days; type: ADME, organism-based, Canis lupus familiaris; parameters: dose 5 mg/kg, route intramuscular, time 0 - last; details: plasma, im
[11] = AUC (0 to last) in female dog at 200 mg, sc after 29 days; details: plasma
[12] = Drug level in Beagle dog muscle at injected site at 5 mg/kg, sc after 6 months; type: ADME, organism-based, Canis lupus familiaris, Muscle tissue; parameters: dose 5 mg/kg, route subcutaneous; details: read-out: Drug uptake
[13] = Drug level in male Beagle dog spleen at 400 mg/kg administered intramuscularly after 1 month; type: ADME, organism-based, Canis lupus familiaris; parameters: dose 400 mg/kg, route intramuscular; details: im, read-out: Drug uptake
[14] = Plasma concentration in male Beagle dog at 200 mg/kg, sc after 1 month; type: ADME, organism-based, Canis lupus familiaris; parameters: dose 200 mg/kg, route subcutaneous
[15] = Drug level in Beagle dog lymph node axillar at 5 mg/kg, sc after 6 months; type: ADME, organism-based, Canis lupus familiaris; parameters: dose 5 mg/kg, route subcutaneous; details: axillary lymph node, read-out: Drug uptake
[16] = Drug level in male Beagle dog thymus at 200 mg/kg, sc after 1 month; type: ADME, organism-based, Canis lupus familiaris; parameters: dose 200 mg/kg, route subcutaneous; details: read-out: Drug uptake
[17] = Plasma concentration in male Beagle dog at 400 mg/kg, sc after 3 months; type: ADME, organism-based, Canis lupus familiaris; parameters: dose 400 mg/kg, route subcutaneous
[18] = Drug level in Beagle dog liver at 5 mg/kg, sc after 6 months; type: ADME, organism-based, Canis lupus familiaris; parameters: dose 5 mg/kg, route subcutaneous; details: read-out: Drug uptake
[19] = Plasma concentration in male Beagle dog at 400 mg/kg, sc after 1 month; type: ADME, organism-based, Canis lupus familiaris; parameters: dose 400 mg/kg, route subcutaneous
[20] = Drug level in Beagle dog spleen at 5 mg/kg, sc after 6 months; type: ADME, organism-based, Canis lupus familiaris; parameters: dose 5 mg/kg, route subcutaneous; details: read-out: Drug uptake
[21] = Ratio of drug level in liver to plasma in Beagle dog at 5 mg/kg, sc after 3 months; type: ADME, organism-based, Canis lupus familiaris; parameters: dose 5 mg/kg, route subcutaneous
[22] = Drug level in female Beagle dog spleen at 200 mg/kg, sc after 1 month; type: ADME, organism-based, Canis lupus familiaris; parameters: dose 200 mg/kg, route subcutaneous; details: read-out: Drug uptake
[23] = Drug level in Beagle dog spleen at 5 mg/kg, sc after 3 months; type: ADME, organism-based, Canis lupus familiaris; parameters: dose 5 mg/kg, route subcutaneous; details: read-out: Drug uptake
[24] = AUC (0 to infinity) in Beagle dog at 1.25 mg/kg, iv after 2 days; type: ADME, organism-based, Canis lupus familiaris; parameters: dose 1.25 mg/kg, route intravenous, time infinity; details: plasma
[25] = Plasma concentration in male Beagle dog at 200 mg/kg administered intramuscularly after 1 month; type: ADME, organism-based, Canis lupus familiaris; parameters: dose 200 mg/kg, route intramuscular; details: im
[26] = Drug level in male Beagle dog spleen at 400 mg/kg, sc after 1 month; type: ADME, organism-based, Canis lupus familiaris; parameters: dose 400 mg/kg, route subcutaneous; details: read-out: Drug uptake
Canis familiaris = assay: Toxicity in Beagle dog assessed as abscess formation at 20 mg/kg, sc after 3 months; type: organism-based, Canis lupus familiaris; parameters: dose 20 mg/kg, route subcutaneous; details: in vivo, 2191.5 h
[27] = Tmax in Beagle dog at 5 mg/kg administered intramuscularly after 184 days; type: ADME, organism-based, Canis lupus familiaris; parameters: dose 5 mg/kg, route intramuscular; details: in vivo, im

Compound: Cc1cc(/C=C/C#N)cc(C)c1Nc1ccnc(Nc2ccc(C#N)cc2)n1 [RILPIVIRINE]
- concentration at 2191.5 h [1]: 26.8 ng/g
- concentration at 2191.5 h [2]: 36.2 ng/g
- concentration at 730.5 h [3]: 11.3 ng/mL
- Kp at 2191.5 h [4]: 4
- Cmax [5]: 6190 ng/mL
- Kp at 4383 h [6]: 4.3
- concentration at 4383 h [7]: 6.9 ng/g
- concentration at 4383 h [8]: 10.7 ng/g
- concentration at 2191.5 h [9]: 142000 ng/g
- AUC(0-t) at 4416 h [10]: 39400 ng·h/mL
- AUC(0-t) at 696 h [11]: 70600 ng·h/mL
- concentration at 4383 h [12]: 48 ng/g
- concentration at 730.5 h [13]: 347 ng/g
- concentration at 730.5 h [14]: 95 ng/mL
- concentration at 4383 h [15]: 8.6 ng/g
- concentration at 730.5 h [16]: 576 ng/g
- concentration at 2191.5 h [17]: 48.4 ng/mL
- concentration at 4383 h [18]: 31.1 ng/g
- concentration at 730.5 h [19]: 209 ng/mL
- concentration at 4383 h [20]: 7.1 ng/g
- Kp at 2191.5 h [21]: 14
- concentration at 730.5 h [22]: 14.5 ng/g
- concentration at 2191.5 h [23]: 9.7 ng/g
- AUC(0-inf) [24]: 8660 ng·h/mL
- concentration at 730.5 h [25]: 74.5 ng/mL
- concentration at 730.5 h [26]: 569 ng/g
- Activity (Canis familiaris): Non-toxic
- Tmax [27]: 24 h
